# Laboratory results: US20230143345A1, “PHARMACEUTICAL COMPOSITION FOR PREVENTION OR TREATMENT OF DISEASES CAUSED BY SARS-COV-2” (DONG WHA PHARM. CO., LTD., priority 2020, published 2023)
# Where two headings read alike, the source gives them in different places.
# Assays:
# SARS-CoV-2 [1] = assay: microbe, parasite or virus in culture; format: cell-based; conditions: VERO cells infected at MOI 0.1 for one hour, then drug, culture fluid after 48 hours, qRT-PCR
# [2] = Cell viability of VERO cells by WST-1 assay (Example 3); conditions: African green monkey
# SARS-CoV-2 [3] = assay: microbe, parasite or virus in culture; format: cell-based; conditions: for SARS-CoV-2 inhibitory ability (in words): comparison at IC50 values with Remdesivir, Lopinavir and Chloroquine; for IC50: read-out: SARS-CoV-2 virus 50% inhibitory ability (IC50 value)
# Vero cell lines = assay: Cell viability of Vero cells in the SARS-CoV-2 inhibition experiment (Example 2)
# VERO cells = assay: Cell viability of VERO cells by WST-1 assay (Example 3); conditions: read-out: 50% cell viability inhibitory concentration (CC50 value); VERO cells, WST-1 assay
smiles,measurement,setting,value
"CCN(CCO)CCCC(C)Nc1ccnc2cc(Cl)ccc12 (stereo not shown) [Hydroxy-chloroquine, reference compound]",IC50,"SARS-CoV-2 [1]; Severe acute respiratory syndrome coronavirus 2, read-out: SARS-CoV-2 virus 50% inhibitory ability (IC50 value)",9330 nM
same,CC50 at 48 h,[2],160000 nM
"COc1cc2cc3c(c(-c4ccc5c(c4)OCO5)c2cc1OC)C(=O)OC3 [Justicidin-B, 9-benzo[1,3]dioxol-5-yl-6,7-dimethoxy-3H-naphtho[2,3-c]furanone]",IC50,SARS-CoV-2 [1]; read-out: SARS-CoV-2 virus 50% inhibitory ability (IC50 value),170 nM
same,SARS-CoV-2 inhibitory ability (in words),SARS-CoV-2 [3]; Vero cells,remarkably more excellent
same,"SARS-CoV-2 virus inhibitory ability (%, average ± standard deviation)","SARS-CoV-2 [3]; concentration 0.10 uM, Vero cells, 24 h",13.37 ± 6.72%
same,"SARS-CoV-2 virus inhibitory ability (%, average ± standard deviation)","SARS-CoV-2 [3]; concentration 0.20 uM, Vero cells, 24 h",48.73 ± 2.82%
same,"SARS-CoV-2 virus inhibitory ability (%, average ± standard deviation)","SARS-CoV-2 [3]; concentration 0.39 uM, Vero cells, 24 h",88.06 ± 0.59%
same,"SARS-CoV-2 virus inhibitory ability (%, average ± standard deviation)","SARS-CoV-2 [3]; concentration 1.56 uM, Vero cells, 24 h",99.61 ± 0.65%
same,"SARS-CoV-2 virus inhibitory ability (%, average ± standard deviation)","SARS-CoV-2 [3]; concentration 3.13 uM, Vero cells, 24 h",100.03 ± 0.27%
same,"SARS-CoV-2 virus inhibitory ability (%, average ± standard deviation)","SARS-CoV-2 [3]; concentration 12.5 uM, Vero cells, 24 h",100.01 ± 0.14%
same,"SARS-CoV-2 virus inhibitory ability (%, average ± standard deviation)","SARS-CoV-2 [3]; concentration 25 uM, Vero cells, 24 h",100.00 ± 0.21%
same,"SARS-CoV-2 virus inhibitory ability (%, average ± standard deviation)","SARS-CoV-2 [3]; concentration 50 uM, Vero cells, 24 h",100.28 ± 0.49%
same,IC50,SARS-CoV-2 [3],203 nM
same,"Cell viability (%, average ± standard deviation)",Vero cell lines; concentration 0.10 uM,107.08 ± 1.75%
same,"Cell viability (%, average ± standard deviation)",Vero cell lines; concentration 0.20 uM,110.62 ± 0.00%
same,"Cell viability (%, average ± standard deviation)",Vero cell lines; concentration 0.39 uM,107.70 ± 4.88%
same,"Cell viability (%, average ± standard deviation)",Vero cell lines; concentration 1.56 uM,102.83 ± 5.24%
same,"Cell viability (%, average ± standard deviation)",Vero cell lines; concentration 3.13 uM,98.69 ± 5.68%
same,"Cell viability (%, average ± standard deviation)",Vero cell lines; concentration 6.25 uM,94.60 ± 3.46%
same,"Cell viability (%, average ± standard deviation)",Vero cell lines; concentration 12.5 uM,90.01 ± 1.60%
same,"Cell viability (%, average ± standard deviation)",Vero cell lines; concentration 25 uM,83.49 ± 1.22%
same,"Cell viability (%, average ± standard deviation)",Vero cell lines; concentration 50 uM,78.67 ± 2.53%
same,CC50,VERO cells,> 800000 nM
"COc1cc2c(OC)c3c(c(-c4ccc5c(c4)OCO5)c2cc1OC)C(=O)OC3 [Justicidin-A, 9-benzo[1,3]dioxol-5-yl-4,6,7-trimethoxy-3H -naphtho[2,3-c]furan-1-one]",IC50,"SARS-CoV-2 [3]; Severe acute respiratory syndrome coronavirus 2, Vero, 24 h",159 nM
same,inhibition at 0.1 µM,"SARS-CoV-2 [3]; Severe acute respiratory syndrome coronavirus 2, concentration 0.10 uM, Vero cells, 24 h, read-out: SARS-CoV-2 virus inhibitory ability (%, average ± standard deviation)",25.7 ± 12.3%
same,inhibition at 0.2 µM,"SARS-CoV-2 [3]; Severe acute respiratory syndrome coronavirus 2, concentration 0.20 uM, Vero cells, 24 h, read-out: SARS-CoV-2 virus inhibitory ability (%, average ± standard deviation)",75.3 ± 4.37%
same,inhibition at 0.39 µM,"SARS-CoV-2 [3]; Severe acute respiratory syndrome coronavirus 2, concentration 0.39 uM, Vero cells, 24 h, read-out: SARS-CoV-2 virus inhibitory ability (%, average ± standard deviation)",95.2 ± 1.48%
same,inhibition at […],"SARS-CoV-2 [3]; Severe acute respiratory syndrome coronavirus 2, concentration 0.78 uM, Vero cells, 24 h, read-out: SARS-CoV-2 virus inhibitory ability (%, average ± standard deviation)",99 ± 1.58%
same,inhibition at 1.56 µM,"SARS-CoV-2 [3]; Severe acute respiratory syndrome coronavirus 2, concentration 1.56 uM, Vero cells, 24 h, read-out: SARS-CoV-2 virus inhibitory ability (%, average ± standard deviation)",99 ± 0.57%
same,inhibition at 3.13 µM,"SARS-CoV-2 [3]; Severe acute respiratory syndrome coronavirus 2, concentration 3.13 uM, Vero cells, 24 h, read-out: SARS-CoV-2 virus inhibitory ability (%, average ± standard deviation)",100 ± 0.36%
same,inhibition at 6.25 µM,"SARS-CoV-2 [3]; Severe acute respiratory syndrome coronavirus 2, concentration 6.25 uM, Vero cells, 24 h, read-out: SARS-CoV-2 virus inhibitory ability (%, average ± standard deviation)",99.6 ± 0.16%
same,inhibition at 12.5 µM,"SARS-CoV-2 [3]; Severe acute respiratory syndrome coronavirus 2, concentration 12.5 uM, Vero cells, 24 h, read-out: SARS-CoV-2 virus inhibitory ability (%, average ± standard deviation)",98.1 ± 1.47%
same,inhibition at 25 µM,"SARS-CoV-2 [3]; Severe acute respiratory syndrome coronavirus 2, concentration 25 uM, Vero cells, 24 h, read-out: SARS-CoV-2 virus inhibitory ability (%, average ± standard deviation)",95.3 ± 0.61%
same,inhibition at 50 µM,"SARS-CoV-2 [3]; Severe acute respiratory syndrome coronavirus 2, concentration 50 uM, Vero cells, 24 h, read-out: SARS-CoV-2 virus inhibitory ability (%, average ± standard deviation)",93.3 ± 1.69%
same,SARS-CoV-2 inhibitory ability (in words),SARS-CoV-2 [3]; Vero cells,remarkably more excellent
same,"Cell viability (%, average ± standard deviation)",Vero cell lines; concentration 0.20 uM,97.6 ± 0.61%
same,"Cell viability (%, average ± standard deviation)",Vero cell lines; concentration 0.39 uM,101.3 ± 1.55%
same,"Cell viability (%, average ± standard deviation)",Vero cell lines; concentration 1.56 uM,97.4 ± 0.09%
same,"Cell viability (%, average ± standard deviation)",Vero cell lines; concentration 3.13 uM,98.4 ± 1.93%
same,"Cell viability (%, average ± standard deviation)",Vero cell lines; concentration 6.25 uM,96.9 ± 3.33%
same,"Cell viability (%, average ± standard deviation)",Vero cell lines; concentration 12.5 uM,96.5 ± 0.20%
same,"Cell viability (%, average ± standard deviation)",Vero cell lines; concentration 25 uM,99.5 ± 1.81%
same,"Cell viability (%, average ± standard deviation)",Vero cell lines; concentration 50 uM,98.0 ± 3.04%
